This passage reports remaining binding results from PMC6576746, “Rational discovery of dual-indication multi-target PDE/Kinase inhibitor for precision anti-cancer therapy using structural systems pharmacology” (PLoS Computational Biology, 2019).

Holding throughout (assay): biochemical
What all share (set-up): DiscoverX KinomeScan competition binding assay across human kinases; per cent of control at 10 and 100 uM

One assay has as its target MERTK (Homo sapiens, UniProt Q12866). The note with it: competition binding, % of control; read-out: Percent Control (100 uM Levosimendan). As for the experimental part:
(§1) To validate our computational predictions, we employed a competition binding assay to detect the binding of levosimendan to 425 human kinases as well as its dose-response curve to RIOK1. The proprietary KinomeScan assay was performed by DiscoverX (Fremont, California, USA). The tests were performed at 10 μM and 100 μM concentrations of levosimendan, respectively. Assay results were reported as %control, calculated as follows: %control=(TestCompoundSignal−PositiveControlSignal)/(NegativeControlSignal−PositiveControlSignal)×100 KinomeScan assay across 452 human kinases verified our computational prediction (S1 Table). RIOK1 is one of the strongest inhibited kinases by levosimendan. The percentage control of RIOK1 is 15.0 and 0.0 under the treatment of 10 μM and 100 μM of levosimendan, respectively. […] The percentage controls of five kinases: FLT3, MAP2K5, PIP5K1A, GAK, and KIT are less than 30.0 under the treatment of both 10 μM and 100 μM of levosimendan. Both FLT3 and KIT are tyrosine protein kinases. Their inhibitors have recently been approved for the treatment of Acute Myeloid Leukemia and other types of cancers, but a combination therapy is needed to overcome rapidly emerged drug resistance, thus improve patients’ drug responses. Other kinases inhibited by levosimendan belong to serine/threonine protein kinase family (RIOK1, RIOK3, GAK, and MAP2K5) and lipid kinase family (PIP5K1A). […] As a result, levosimendan may modulate different cancer pathways from those by the tyrosine protein kinase inhibitors, and it could be a novel lead compound for a new anti-cancer therapy to overcome drug resistance of existing drugs or to target different types of cancers through polypharmacology or drug combination.

Another assay concerns the target T1, JNK3 (Homo sapiens, UniProt P53779).
T1 construct: gene MAPK10
The note with it: competition binding, % of control; read-out: Percent Control (100 uM Levosimendan). As for the experimental part:
as §1

Another assay addresses PRKCH (Homo sapiens, UniProt P24723). Conditions: competition binding, % of control; read-out: Percent Control (100 uM Levosimendan). As for the experimental part:
as §1

Another assay addresses EGFR(L747-T751del,Sins) (Homo sapiens, UniProt P00533, DEL747-750/T751S). The note with it: competition binding, % of control; read-out: Percent Control (100 uM Levosimendan). As to the method:
as §1

The target in another assay is T2, p38-alpha (Homo sapiens, UniProt Q16539).
T2 construct: gene MAPK14
The note with it: competition binding, % of control; read-out: Percent Control (100 uM Levosimendan). As for the experimental part: as §1

A further assay has as its target DAPK1 (Homo sapiens, UniProt P53355). The note with it: competition binding, % of control; read-out: Percent Control (100 uM Levosimendan). As to the method:
as §1

Another assay deals with LATS2 (Homo sapiens, UniProt Q9NRM7). Conditions: competition binding, % of control; read-out: Percent Control (100 uM Levosimendan). As to the method: as §1
LATS2, sequence (Q9NRM7 whole entry): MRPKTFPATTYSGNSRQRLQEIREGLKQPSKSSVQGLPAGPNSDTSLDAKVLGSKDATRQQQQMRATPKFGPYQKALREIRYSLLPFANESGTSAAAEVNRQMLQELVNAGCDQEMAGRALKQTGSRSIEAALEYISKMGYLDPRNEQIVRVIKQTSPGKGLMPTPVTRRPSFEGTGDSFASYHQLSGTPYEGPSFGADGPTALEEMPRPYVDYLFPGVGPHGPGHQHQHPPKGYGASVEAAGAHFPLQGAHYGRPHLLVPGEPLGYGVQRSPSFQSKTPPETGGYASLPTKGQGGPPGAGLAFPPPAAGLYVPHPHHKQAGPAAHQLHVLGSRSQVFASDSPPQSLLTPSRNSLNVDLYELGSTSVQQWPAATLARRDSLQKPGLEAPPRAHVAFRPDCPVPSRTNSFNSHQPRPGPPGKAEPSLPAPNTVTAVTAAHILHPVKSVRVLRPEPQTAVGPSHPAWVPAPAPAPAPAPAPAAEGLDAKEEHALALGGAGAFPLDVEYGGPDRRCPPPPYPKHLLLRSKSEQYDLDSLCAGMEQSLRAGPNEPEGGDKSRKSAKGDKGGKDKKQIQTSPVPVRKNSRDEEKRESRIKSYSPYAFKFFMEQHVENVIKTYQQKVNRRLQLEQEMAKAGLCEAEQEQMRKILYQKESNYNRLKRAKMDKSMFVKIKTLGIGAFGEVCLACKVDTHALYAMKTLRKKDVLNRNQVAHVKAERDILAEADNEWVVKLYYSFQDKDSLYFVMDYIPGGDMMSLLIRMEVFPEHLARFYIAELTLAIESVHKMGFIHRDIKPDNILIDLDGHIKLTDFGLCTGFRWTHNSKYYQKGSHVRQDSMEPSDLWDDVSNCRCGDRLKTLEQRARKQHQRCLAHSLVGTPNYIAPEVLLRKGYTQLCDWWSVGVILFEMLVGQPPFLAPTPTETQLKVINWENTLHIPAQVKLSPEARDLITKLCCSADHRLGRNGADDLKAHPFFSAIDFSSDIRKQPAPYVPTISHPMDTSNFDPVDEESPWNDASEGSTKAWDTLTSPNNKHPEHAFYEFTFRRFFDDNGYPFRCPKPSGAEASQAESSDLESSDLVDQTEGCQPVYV
A further assay concerns the target MKNK1 (Homo sapiens, UniProt Q9BUB5). Conditions: competition binding, % of control; read-out: Percent Control (100 uM Levosimendan). As to the method:
as §1

In a further assay the target is FGFR4 (Homo sapiens, UniProt P22455). The note with it: competition binding, % of control; read-out: Percent Control (100 uM Levosimendan). As to the method: as §1
In the next assay the target is MARK3 (Homo sapiens, UniProt P27448). The note with it: competition binding, % of control; read-out: Percent Control (100 uM Levosimendan). As to the method: as §1
MARK3, sequence (P27448 whole entry): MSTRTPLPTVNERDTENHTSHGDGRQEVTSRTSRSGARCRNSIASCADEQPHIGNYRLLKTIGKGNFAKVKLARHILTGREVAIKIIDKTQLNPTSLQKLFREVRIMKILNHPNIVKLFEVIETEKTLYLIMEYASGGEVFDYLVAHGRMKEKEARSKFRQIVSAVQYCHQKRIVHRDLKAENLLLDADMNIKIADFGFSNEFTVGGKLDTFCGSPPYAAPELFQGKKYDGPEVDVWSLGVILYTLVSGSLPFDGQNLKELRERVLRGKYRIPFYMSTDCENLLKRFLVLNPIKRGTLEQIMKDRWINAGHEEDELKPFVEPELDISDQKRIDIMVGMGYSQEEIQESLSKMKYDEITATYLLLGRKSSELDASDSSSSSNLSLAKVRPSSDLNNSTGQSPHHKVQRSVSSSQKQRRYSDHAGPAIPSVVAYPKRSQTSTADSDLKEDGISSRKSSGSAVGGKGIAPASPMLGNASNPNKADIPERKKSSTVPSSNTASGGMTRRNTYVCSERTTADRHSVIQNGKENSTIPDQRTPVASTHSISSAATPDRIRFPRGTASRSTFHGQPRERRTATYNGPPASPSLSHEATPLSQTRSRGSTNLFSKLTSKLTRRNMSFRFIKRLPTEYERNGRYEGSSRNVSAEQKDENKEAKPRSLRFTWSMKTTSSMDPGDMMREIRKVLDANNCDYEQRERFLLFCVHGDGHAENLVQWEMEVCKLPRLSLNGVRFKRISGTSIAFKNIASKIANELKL
For another assay, the target named is RET(V804L) (Homo sapiens, UniProt P07949, V804L). The note with it: competition binding, % of control; read-out: Percent Control (100 uM Levosimendan). As to the method: as §1
The target in a further assay is CSNK1E (Homo sapiens, UniProt P49674). The note with it: competition binding, % of control; read-out: Percent Control (100 uM Levosimendan). As for the experimental part:
as §1

For the next assay, the target named is CDKL2 (Homo sapiens, UniProt Q92772). Conditions: competition binding, % of control; read-out: Percent Control (100 uM Levosimendan). As for the experimental part: as §1
Another assay has as its target PIK3CA(E545K) (Homo sapiens, UniProt P42336, E545K). Conditions: competition binding, % of control; read-out: Percent Control (100 uM Levosimendan). As to the method: as §1
The target in a further assay is CAMK2A (Homo sapiens, UniProt Q9UQM7). Conditions: competition binding, % of control; read-out: Percent Control (100 uM Levosimendan). As for the experimental part:
as §1

Another assay has as its target DAPK2 (Homo sapiens, UniProt Q9UIK4). The note with it: competition binding, % of control; read-out: Percent Control (100 uM Levosimendan). As for the experimental part:
as §1

The target in a further assay is T3, OSR1 (Homo sapiens, UniProt O95747).
T3 construct: gene OXSR1
Conditions: competition binding, % of control; read-out: Percent Control (100 uM Levosimendan). As for the experimental part: as §1

The next assay has as its target CSNK1G2 (Homo sapiens, UniProt P78368). The note with it: competition binding, % of control. As to the method: as §1
The target of assay [1] is T4, ABL1(T315I)-phosphorylated (Homo sapiens, UniProt P00519, T315I).
T4 construct: phosphorylated
The note with it: competition binding, % of control; read-out: Percent Control (100 uM Levosimendan). As for the experimental part:
as §1

Structures are written as SMILES.

CSNK1G2, sequence (P78368 whole entry): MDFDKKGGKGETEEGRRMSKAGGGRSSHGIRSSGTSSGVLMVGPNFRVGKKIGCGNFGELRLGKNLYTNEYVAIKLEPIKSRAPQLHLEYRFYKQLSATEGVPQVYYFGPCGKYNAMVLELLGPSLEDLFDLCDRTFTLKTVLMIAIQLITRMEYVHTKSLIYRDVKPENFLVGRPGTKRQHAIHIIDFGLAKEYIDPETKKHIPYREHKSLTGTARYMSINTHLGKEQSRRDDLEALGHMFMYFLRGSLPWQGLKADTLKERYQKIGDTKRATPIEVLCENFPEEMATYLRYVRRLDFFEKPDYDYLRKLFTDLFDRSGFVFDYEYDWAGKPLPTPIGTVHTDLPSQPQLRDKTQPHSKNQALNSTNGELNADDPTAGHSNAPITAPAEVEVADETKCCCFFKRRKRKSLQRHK
PRKCH, sequence (P24723 whole entry): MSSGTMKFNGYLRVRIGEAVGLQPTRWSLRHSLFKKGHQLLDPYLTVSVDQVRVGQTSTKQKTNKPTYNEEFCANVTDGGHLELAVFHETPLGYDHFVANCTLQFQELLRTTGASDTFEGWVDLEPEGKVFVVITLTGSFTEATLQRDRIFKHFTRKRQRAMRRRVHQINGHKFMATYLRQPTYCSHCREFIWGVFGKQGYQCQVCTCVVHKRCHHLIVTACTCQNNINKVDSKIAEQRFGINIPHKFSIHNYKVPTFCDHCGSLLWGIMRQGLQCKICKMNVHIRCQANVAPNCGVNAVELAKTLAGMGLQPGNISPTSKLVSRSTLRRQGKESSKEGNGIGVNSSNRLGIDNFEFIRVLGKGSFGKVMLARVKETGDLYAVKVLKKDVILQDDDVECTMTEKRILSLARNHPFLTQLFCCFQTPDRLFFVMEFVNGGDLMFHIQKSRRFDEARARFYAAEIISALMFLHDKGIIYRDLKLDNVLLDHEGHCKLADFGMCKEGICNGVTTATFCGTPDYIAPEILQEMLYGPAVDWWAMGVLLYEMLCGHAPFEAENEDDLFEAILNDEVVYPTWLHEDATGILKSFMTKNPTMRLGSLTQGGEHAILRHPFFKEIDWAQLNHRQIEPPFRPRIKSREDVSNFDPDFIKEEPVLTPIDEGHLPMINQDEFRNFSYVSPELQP
PIK3CA(E545K), sequence (P42336 whole entry E545K): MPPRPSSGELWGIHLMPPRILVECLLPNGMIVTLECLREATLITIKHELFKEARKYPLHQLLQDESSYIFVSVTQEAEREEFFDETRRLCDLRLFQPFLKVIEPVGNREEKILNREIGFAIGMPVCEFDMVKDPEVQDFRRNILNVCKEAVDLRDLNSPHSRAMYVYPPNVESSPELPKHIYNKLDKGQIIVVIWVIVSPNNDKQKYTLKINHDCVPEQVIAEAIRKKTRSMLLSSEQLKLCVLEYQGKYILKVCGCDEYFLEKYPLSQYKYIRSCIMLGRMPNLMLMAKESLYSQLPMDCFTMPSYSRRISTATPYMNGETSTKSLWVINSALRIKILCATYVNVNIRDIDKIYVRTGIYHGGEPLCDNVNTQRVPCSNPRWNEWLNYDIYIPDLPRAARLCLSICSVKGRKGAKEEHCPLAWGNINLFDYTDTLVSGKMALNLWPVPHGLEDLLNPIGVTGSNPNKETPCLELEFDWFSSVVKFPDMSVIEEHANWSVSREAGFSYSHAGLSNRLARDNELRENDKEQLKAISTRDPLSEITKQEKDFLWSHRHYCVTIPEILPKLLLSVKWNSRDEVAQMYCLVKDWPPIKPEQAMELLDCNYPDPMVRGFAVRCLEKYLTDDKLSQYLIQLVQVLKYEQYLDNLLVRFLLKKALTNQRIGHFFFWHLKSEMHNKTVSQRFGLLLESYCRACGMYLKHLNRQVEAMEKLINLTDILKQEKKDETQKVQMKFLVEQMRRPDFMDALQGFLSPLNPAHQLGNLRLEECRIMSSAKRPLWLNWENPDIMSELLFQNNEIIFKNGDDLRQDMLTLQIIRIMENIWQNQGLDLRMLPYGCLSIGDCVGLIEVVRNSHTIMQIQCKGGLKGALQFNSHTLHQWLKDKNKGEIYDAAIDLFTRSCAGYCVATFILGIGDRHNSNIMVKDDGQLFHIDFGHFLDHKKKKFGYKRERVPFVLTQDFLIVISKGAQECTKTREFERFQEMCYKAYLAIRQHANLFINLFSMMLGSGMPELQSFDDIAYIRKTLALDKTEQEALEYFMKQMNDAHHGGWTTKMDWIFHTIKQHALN
MKNK1, sequence (Q9BUB5 whole entry): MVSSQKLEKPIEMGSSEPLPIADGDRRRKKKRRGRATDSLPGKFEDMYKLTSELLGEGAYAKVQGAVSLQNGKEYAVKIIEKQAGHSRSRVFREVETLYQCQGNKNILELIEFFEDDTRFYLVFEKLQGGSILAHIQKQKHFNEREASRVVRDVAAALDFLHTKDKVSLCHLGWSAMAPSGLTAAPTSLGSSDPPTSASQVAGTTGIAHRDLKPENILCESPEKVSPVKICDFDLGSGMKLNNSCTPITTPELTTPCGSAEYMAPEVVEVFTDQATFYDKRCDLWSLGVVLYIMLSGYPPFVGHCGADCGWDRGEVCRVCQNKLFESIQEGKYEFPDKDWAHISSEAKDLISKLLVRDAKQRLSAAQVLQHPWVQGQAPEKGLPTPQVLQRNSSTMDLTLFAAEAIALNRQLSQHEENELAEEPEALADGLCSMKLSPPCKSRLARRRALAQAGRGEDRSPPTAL
T1 sequence (P53779 whole entry): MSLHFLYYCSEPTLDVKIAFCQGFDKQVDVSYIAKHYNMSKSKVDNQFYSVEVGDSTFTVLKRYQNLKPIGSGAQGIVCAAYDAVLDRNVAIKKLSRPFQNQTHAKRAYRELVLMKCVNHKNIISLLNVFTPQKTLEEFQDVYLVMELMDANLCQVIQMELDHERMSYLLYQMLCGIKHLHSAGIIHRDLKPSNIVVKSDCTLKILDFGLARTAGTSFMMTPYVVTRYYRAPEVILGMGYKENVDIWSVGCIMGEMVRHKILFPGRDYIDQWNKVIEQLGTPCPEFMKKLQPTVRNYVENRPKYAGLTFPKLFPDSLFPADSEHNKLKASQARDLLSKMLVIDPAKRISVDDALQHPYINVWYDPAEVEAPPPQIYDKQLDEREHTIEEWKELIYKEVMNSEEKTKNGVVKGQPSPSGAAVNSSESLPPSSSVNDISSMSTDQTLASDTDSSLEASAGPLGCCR

Turning to `C[C@@H]1CC(=O)NN=C1c1ccc(NN=C(C#N)C#N)cc1` [levosimendan], the remaining binding at 100 µM came out at 70% at MERTK; 99% at JNK3; 69% on PRKCH; 59% on EGFR(L747-T751del,Sins); 97% at p38-alpha; 88% on DAPK1. In addition, the remaining binding at 100 µM came out at 100% at LATS2; 65% on MKNK1; 92% on FGFR4; 95% on MARK3; 92% on RET(V804L); 63% on CSNK1E. Moreover, the remaining binding at 100 µM at CDKL2 is 100%; at PIK3CA(E545K), 58%; on CAMK2A, 73%; at DAPK2, 73%; on OSR1, 100%; at CSNK1G2 (read-out: Percent Control (100 uM Levosimendan)), 4.8%. In [1], the remaining binding at 100 µM came out at 64%. The remaining binding at 10 µM at CSNK1G2 (read-out: Percent Control (10 uM Levosimendan)) worked out at 62%.
